Where two headings read alike, the source gives them in different places.

The nature of series [1]: Cytotoxicity SRB assay, HeLa. Conditions: human. The method, then:
(§1) All of the compounds were also evaluated for their cytotoxic properties against six human cancer cell lines (lung carcinoma epithelian (A549), colon carcinoma (HCT-116), pancreatic carcinoma (BXPC-3), breast cancer (MCF-7), cervical epithelium (HeLa), and erythroleukemic (K562)) and a human umbilical vein endothelial cell (HUVEC) line (Table 2).
(§2) The cytotoxicity against HCT-116, BXPC-3, HeLa, MCF-7, A-549, and HUVEC cell lines was evaluated using the SRB method. The cytotoxicity against K562 and Vero cell lines was evaluated using the MTT method. Adriamycin was used as a positive control. All cells were cultivated in T-75 flasks containing 10% Fetal Bovine Serum (FBS), Dulbeco’s Modified Eagle Medium (DMEM) with 2 mM L-glutamine, and 1% penicillin-streptomycin at 37 °C in a humidified atmosphere with 5% CO2. For SRB assay, cells in their log phase of growth were seeded into 96 well micro plates (4 × 10^4 cells per well) and followed by treating with test samples at 10 μM or DMSO. After incubation at 37 °C for 72 h, the cells were fixed with the cold 20% (w/v) TCA for 2 h and stained with Sulforhodamine B (SRB) dye for 0.5 h. The protein-bound dye is dissolved in Tris base solution for OD determination at 540 nm on an ELISA Plate Reader. For MTT assay, cells (5 × 10^3 cells per well) were plated in 96 well micro plates. After cell attachment overnight, new medium containing test compounds or DMSO was added. The plate was incubated for 48 h at 37 °C and incubated with 3-(4,5-dimethylthiazol-2-yl)-2,5-diphenyltetrazolium bromide (MTT) for additional 2–4 hours. The assay plate was then read at 490 nm on an ELISA Plate Reader. The data were obtained from experiments carried out in triplicate.
For orientation: The SRB assay estimates cell density from bound dye.

The nature of series [2]: Cytotoxicity against the panel of six human cancer cell lines and HUVEC. The method, then:
as §1, §2

A short description of series [3]: Cytotoxicity SRB assay, BXPC-3. Conditions: human. The method, then:
as §1, §2

A short description of series [4]: Cytotoxicity MTT assay, K562. Conditions: human. The method, then:
as §1, §2
In general terms: Tetrazolium assays rely on reduction of a dye to a coloured formazan, in cell work by metabolically active cells.

A short description of series [5]: Cytotoxicity SRB assay, HUVEC. Conditions: human. The method, then:
as §1, §2

The nature of series [6]: Toxicity against Vero cells (MTT). Type of series: cell-based, African green monkey. Conditions: African green monkey, MTT, 48 h. The method, then:
(§3) It should be emphasized that toxicity is a major concern of drug discovery and development. The above active compounds were evaluated for in vitro toxicity against a mammalian kidney cell line (Vero). The selectivity index (SI) was used as the evaluation parameter of drug potential of the test samples by comparing the toxicity on the Vero cell line (CC50) and the selective inhibitory effect on P. falciparum, L. donovani or T. cruzi (IC50) calculated here as CC50/IC50.
(§4) Adriamycin was used as a positive control.

A short description of series [7]: Cytotoxicity SRB assay, A-549. Conditions: human. The method, then:
as §1, §2

The next series deals with Leishmania donovani. The series can be described thus: Antileishmanial assay (PicoGreen). In kind it is cell-based. Conditions: read-out: Leishmania donovani IC50. The method, then: The anti-leishmania activity was evaluated following the protocol described by Calderon et al.[39], using the fluorescent DNA intercalator PicoGreen (Invitrogen, USA). The species responsible for visceral leishmaniasis, L. donovani, was used for the assays.

Series [8] can be described thus: Cytotoxicity SRB assay, MCF-7. Conditions: human. The method, then: as §1, §2
In the next series the test system is Plasmodium falciparum. The series can be described thus: Antiplasmodial assay (PicoGreen growth inhibition in infected human erythrocytes). In kind it is cell-based. Conditions: read-out: Plasmodium falciparum IC50. The method, then:
Activity against the causative agent of malaria was performed by culturing human erythrocytes and infecting them with P. falciparum, as described by Trager and Jensen[36]. Briefly, the W2 (Chloroquine resistant) and 3D7 (Chloroquine sensitive) strains of P. falciparum were cultured in RPMI 1640 medium (Sigma-Aldrich, USA) supplemented with 10% human serum (from O+ blood) at a hematocrit of 2% erythrocytes (O+) at 37 °C in a gas mixture of 5% CO2, 5% O2, and 90% N2. Parasites were synchronized by a temperature cycling technique as described by Almanza et al.[37]

The nature of series [9]: Cytotoxicity SRB assay, HCT-116. Conditions: human. The method, then:
as §1, §2

The subject of a further series is Trypanosoma cruzi. The series is described as follows: Antitrypanosomal assay (beta-galactosidase reporter, intracellular amastigotes in Vero cells). For all read-outs here: key: I: Inactive. Type of series: cell-based. Conditions: Tulahuen clone C4, intracellular amastigotes in Vero cells, 120 h; for IC50: Trypanosoma cruzi, read-out: Trypanosoma cruzi IC50. The method, then:
Briefly, the expression of the reporter gene for beta-galactosidase (β-Gal) in the Tulahuen clone C4 of T. cruzi is assessed by colorimetry at 570 nm, which correlates with the parasite growth. Assays were performed on the intracellular amastigote form of the parasite infecting African green monkey kidney (Vero) cells, incubated for 120 h at 37 °C with 5% CO2.

For a further series, the system named is Vero cells. The series can be described thus: Toxicity against Vero cells (MTT). In kind it is cell-based, African green monkey. Conditions: in vitro toxicity against mammalian kidney cell line (Vero). The method, then:
as §3, §4

Setting [10] is: BXPC-3 pancreatic carcinoma cells.
The mark [11] stands for this setting: HUVEC (umbilical vein endothelial cells).
[12] abbreviates: Vero cells (mammalian kidney cell line).
Setting [13] is: Erythrocyte, in vitro, W2 and 3D7 strains cultured, strain of the values not stated.

For `COc1cc(O)c2c(c1)/C=C/C[C@H](O)[C@H](O)C(=O)/C=C\C[C@H](C)OC2=O` [Compound 7], the IC50 at 72 h in series [1] (HeLa cervical epithelium cells) was greater than 10 µM; in series [3] (setting [10]), 5.07 µM; in [5] (setting [11]), greater than 10 µM; in series [7] (A-549 lung carcinoma cells), greater than 10 µM; in [8] (MCF-7 breast cancer cells), greater than 10 µM; in series [9] (HCT-116 colon carcinoma cells), 1.09 µM. The IC50 in series [2] was less than 10 µM; in the series on Leishmania donovani (in vitro), 2.21 µM; with Plasmodium falciparum (setting [13]), 11 µM. In [4] (K562 erythroleukemic cells), the IC50 at 48 h was greater than 10 µM. Further, in [6] (setting [12]), the 50% cytotoxic concentration (CC50) at 48 h is less than 1 µM.
`COc1cc(O)c2c(c1)/C=C/C[C@H](O)[C@H](O)[C@@H](O)/C=C/C[C@H](C)OC2=O` [Compound 8, zeaenol]: the IC50 at 72 h in series [1], in series [3], in [5], in [7], in series [8] and in series [9] was greater than 10 µM throughout. The “Trypanosoma cruzi IC50” value in the series with Trypanosoma cruzi is reported as “I”. In series [4], this compound displayed an IC50 at 48 h greater than 10 µM. The same compound returned a CC50 at 48 h in [6] of 227 µM. In addition, the IC50 in the series on Leishmania donovani was greater than 15.7 µM; in the series on Plasmodium falciparum (3D7, Erythrocyte), greater than 30.7 µM.
With `COc1cc2c(c(OC(C)=O)c1)C(=O)O[C@@H](C)C/C=C/[C@@H]1OC(C)(C)O[C@H]1[C@@H](OC(C)=O)C/C=C/2` [Compound 11], the IC50 at 72 h in [1] (HeLa cervical epithelium cells), in series [3] (setting [10]), in series [5] (setting [11]), in series [7] (A-549 lung carcinoma cells), in series [8] (MCF-7 breast cancer cells) and in [9] (HCT-116 colon carcinoma cells) was greater than 10 µM throughout. For the same compound, the results for the IC50 with Trypanosoma cruzi, in the series with Leishmania donovani (in vitro) and with Plasmodium falciparum (setting [13]) were 11.9 µM, 9.22 µM and 1.84 µM, respectively. Further, in series [4] (K562 erythroleukemic cells), the 50% inhibitory concentration (IC50) at 48 h is greater than 10 µM. The “Toxicity (in words)” value with Vero cells is “non-toxic”. Further, the CC50 at 48 h in series [6] (setting [12]) amounted to 339 µM.
Regarding `COc1cc(O)c2c(c1)/C=C/C[C@H](OC(C)=O)[C@H](OC(C)=O)[C@@H](OC(C)=O)/C=C/C[C@H](C)OC2=O` [Compound 12], the IC50 at 72 h in series [1] (HeLa cervical epithelium cells), in [3] (setting [10]), in series [5] (setting [11]), in [7] (A-549 lung carcinoma cells), in series [8] (MCF-7 breast cancer cells) and in [9] (HCT-116 colon carcinoma cells) was greater than 10 µM in each case. Further, the values for the IC50 in the series on Trypanosoma cruzi, in the series with Leishmania donovani (in vitro) and with Plasmodium falciparum (setting [13]) were 17.2 µM, 15.7 µM and 8.36 µM, respectively. For the same compound, the IC50 at 48 h in [4] (K562 erythroleukemic cells) is greater than 10 µM. Moreover, the “Toxicity (in words)” value in the series on Vero cells was “non-toxic”. Besides, half-maximal cytotoxicity in [6] (setting [12]) (CC50 at 48 h) was put at 1520 µM.
As to `COc1cc2c(c(OC(=O)c3ccco3)c1)C(=O)O[C@@H](C)C/C=C/[C@H](OC(=O)c1ccco1)[C@@H](OC(=O)c1ccco1)[C@@H](OC(=O)c1ccco1)C/C=C/2` [Compound 15], the “Trypanosoma cruzi IC50” value in the series on Trypanosoma cruzi was “I”. Further, the “Toxicity (in words)” value with Vero cells is listed as “non-toxic”. The same compound displayed a CC50 at 48 h in series [6] (setting [12]) of 1570 µM. Moreover, the IC50 in the series with Leishmania donovani (in vitro) was greater than 15.7 µM; with Plasmodium falciparum (setting [13]) it was 22.2 µM.
On to `COc1cc(O)c2c(c1Cl)/C=C/C[C@H](O)[C@@H]1OC(C)(C)O[C@H]1CCC[C@H](C)OC2=O` [Compound 18], for which the IC50 at 72 h in series [1], in series [3], in series [7], in [8] and in series [9] was greater than 10 µM in each case. Also, the “Trypanosoma cruzi IC50” value with Trypanosoma cruzi is “I”. The IC50 at 48 h in [4] is greater than 10 µM. Also, the CC50 at 48 h in series [6] was 102 µM. The IC50 is greater than 15.7 µM in the series with Leishmania donovani and greater than 30.7 µM in the series on Plasmodium falciparum (3D7, Erythrocyte).

As usually defined, the IC50 is the concentration needed to halve the response being measured. Broadly, the CC50 is the concentration giving 50% cytotoxicity. Lower therefore signals harm at low concentration.

(Values after PMC5603512, “Discovery, Semisynthesis, Antiparasitic and Cytotoxic Evaluation of 14-Membered Resorcylic Acid Lactones and Their Derivatives” (Scientific Reports, 2017).)
